# Assay results: PubChem BioAssay AID2305 (GlaxoSmithKline (GSK), 2010)
# Where “and” joins values, the source holds several entries; their conditions need not be identical. Equal values may be shown once.
# System: P. falciparum 3D7 growth, pLDH absorbance
# Assay: blood-stage malaria parasite growth potency – strain 3D7, dose response (AID 2305)
row,Compound,IC50
1,Cc1cccc2[nH]c(-c3ccc(-c4ccc(CNCc5ccc(S(C)(=O)=O)cc5)cc4)cc3)nc12,0.75 µM
2,Oc1cc2c(cc1CN1CCN(Cc3cccs3)CC1)CCC2,0.84 µM
3,COc1c(C2=CCN(CCCCNC(=O)c3ccc(-c4ccc(C#N)cc4)cc3)CC2)ccc2c1CCCC2,0.91 µM
4,CC(C)c1ccc(NC(=O)NCCCC2CCCN(CCCCCNC(=O)/C=C/c3ccc(Cl)c(Cl)c3)C2)cc1 (configuration not stated),0.96 µM
5,Cc1cc(CNCCCCCCCNCc2ccc(-c3ccccc3)cc2)ccc1O,0.49 µM
6,COc1ccc(C(=O)Nc2ccc(Cl)cc2C(=O)Nc2ccncc2)cc1,0.82 µM
7,OCCN1CCN(Cc2cccc(-c3ccc(-c4nc5ccc(C(F)(F)F)cc5[nH]4)s3)c2)CC1,0.09 µM
8,COc1ccc(Nc2ncc3c(-c4cccc(NC(=O)Cc5ccc(O)cc5)c4)c[nH]c3n2)cc1OC,0.57 µM
9,O=C(Nc1ccc(-c2nc3ccccc3[nH]2)cc1)c1ccc(-c2cccc([N+](=O)[O-])c2)o1,0.27 µM
10,Cc1cc(C2CCN(CCCCNC(=O)c3ccc(-c4ccc(C#N)cc4)cc3)CC2)c(C)cc1O,0.85 µM
11,Cn1nc(-c2cccc(CNCc3ccccc3)c2)c2cnc(NC3CCCC3)nc21,1.26 µM
12,CCCCNCc1ccc(-c2nc(CN(C(=O)Nc3cc([N+](=O)[O-])ccc3F)C3Cc4ccccc4C3)cs2)cc1,1.1 µM
13,COc1ccccc1NC(=O)Nc1ccc(-c2cccc(-c3nc4ccccc4[nH]3)c2)cc1,0.64 µM
14,CCCCCC(C)C(C)c1cc(O)c2c(c1)OC(C)(C)c1cnccc1-2 (configuration not stated),0.77 µM
15,Cc1cccc2[nH]c(-c3cccc(-c4ccc(NC(=O)c5cccc(C(N)=O)c5)cc4)c3)nc12,0.41 µM
16,CC(C)(CNCCOc1ccc(Cl)cc1)c1nc(-c2ccc(Cl)c(O)c2)c(-c2ccnc(N)n2)[nH]1,0.83 µM
17,CCOC(=O)c1cc(C(=O)NCCCCN2CCC(c3ccc4c(c3OC)CCCC4)CC2)ccc1-c1ccc(C(F)(F)F)cc1,0.71 µM
18,NC(=O)c1cccc(Nc2nccc(Nc3ccc(Oc4cccc5ccccc45)cc3)n2)c1,1.15 µM
19,CN(C)c1ccc(N2C(N)=NC(N)=NC23CCCC3)cc1,0.93 µM
20,O=C(Nc1cccc(Oc2ccccc2)c1)N[C@H]1CCN(Cc2ccc(OCCCN3CCCCC3)cc2)C1,0.72 µM
21,O=C(NC1CCCCC1)c1ccc(O)c(-c2cccc(C(F)(F)F)c2)c1,0.71 µM
22,COCCN(C)c1ccc(C(=O)Nc2ccccc2)cc1NS(=O)(=O)Cc1ccccc1,0.57 µM
23,O=C(NC1CCN(Cc2ccccc2)CC1)c1ccc(-c2nc3cc(Cl)c(Cl)cc3[nH]2)c(F)c1,0.74 µM
24,CCCCCCN1CCC(NCc2ccc(C(F)(F)F)cc2)CC1,0.37 µM
25,Cc1cccc2[nH]c(-c3ccc(-c4ccc(C(=O)NCCc5cn(C)cn5)cc4)s3)nc12,0.96 µM

row,Compound,IC50
1,COc1cc2nc(NCc3nc4ccccc4[nH]3)nc(N)c2cc1OC,0.89 µM
2,O=C(/C=C/c1ccc(Cl)c(Cl)c1)NCC[C@@H]1C[C@H]1CCN1CCC(c2c[nH]c3ccccc23)CC1,0.79 µM
3,Fc1cccc(Nc2nc(NCc3ccc(Cl)c(Cl)c3)nc(Nc3cccc(F)c3)n2)c1,0.75 µM
4,O=C(Nc1cccc(-c2nn3ccccc3c2-c2ccnc(Nc3cccc(N4CCCC4=O)c3)n2)c1)c1cc(F)ccc1F,0.21 µM
5,COc1cc2nc(N3CCC(CNC(=O)c4cccc5cc[nH]c45)CC3)nc(N)c2cc1OC,1.58 µM
6,CCN(CC)CCN(Cc1ccc(-c2ccc(C(F)(F)F)cc2)cc1)C(=O)Cn1nc(-c2ccc(C(F)(F)F)cc2)ccc1=O,0.8 µM
7,COc1cccc2cc(C(=O)N[C@@H](CC(C)C)C(=O)N[C@H](/C=N/NC(=O)OC(C)(C)C)Cc3ccccc3)oc12,0.3 µM
8,O=C(NCCCCN1CCCC2c3ccc(O)cc3CCC21)c1ccc(-c2ccccc2)cc1 (configuration not stated),0.73 µM and 0.94 µM
9,CCOC(=O)c1c(C)n(-c2ccccc2)c2ccc(OC(=O)c3ccc(S(=O)(=O)N(CC)CC)cc3)cc12,0.75 µM
10,COc1ccccc1NC(=S)N/N=C/c1ccc(O)cc1O,1.02 µM
11,O=S(=O)(Nc1cc2c(cc1OCCCN1CCCCC1)CCNCC2)c1ccc(-c2ccc(Cl)cc2)cc1,1 µM
12,Cc1ccc(C(=O)N2CCN(Cc3nccs3)CC2)cc1,1.01 µM
13,CC1CC(C)CN(CCCNc2ccc(C(=O)Nc3ccc(C(F)(F)F)cc3)cc2[N+](=O)[O-])C1 (configuration not stated),0.2 µM
14,N#Cc1cccc(NC(=O)c2cccc(S(=O)(=O)NC3CCN(CC4CCCCC4)C3)c2)c1 (configuration not stated),0.58 µM
15,COc1cc(-c2nc(-c3ccccc3)c(-c3ccccc3)[nH]2)ccc1OCCN(C)C,0.3 µM
16,CCOC(=O)c1c(CN(CC)CC)n(-c2ccccc2)c2cc(Br)c(O)cc12,1 µM
17,Cc1cc(NC2CCCC2)nc(Nc2ccccc2F)n1,0.93 µM
18,CN(C)S(=O)(=O)c1ccc(N2CCN(CCC3(c4cccc(F)c4)CCN(C(=O)C(C)(C)C)CC3)CC2)c2nonc12,0.7 µM
19,CN(C)C(=O)c1cc(CNCc2ccccc2)ccc1-c1cccc(CNCc2ccc(-c3ccccc3)cc2)c1,1.05 µM
20,Nc1nc(N)c2cc(CNc3ccc(Cl)c(Cl)c3)ccc2n1,1.02 µM
21,Cc1ccc(Cc2c(N)nc3nc(N)nc(N)c3c2C)cc1,0.19 µM
22,O=C(NCCCCN1CCC(c2ccc3c(c2OCC2CC2)CCCC3)CC1)c1ccc(NC(=O)c2ccc(Cl)cc2)cc1,0.68 µM
23,O=C(Cc1cnc[nH]1)Nc1cccc(-c2ccc(-c3nc4ccc(C(F)(F)F)cc4[nH]3)cc2)c1,0.7 µM
24,O=C1CCCN1CCCNCc1cccc(-c2cccc(-c3nc4ccc(F)cc4[nH]3)c2)c1,0.6 µM
25,CCN(CCCN1CCCCC1)c1cc(C)nc(Nc2cccc(C(F)(F)F)c2C)n1,0.61 µM

row,Compound,IC50
1,CCC[C@@H]([C@@H](CC(C)C)C(=O)N[C@@H](CCCCNC(=O)c1cccc(OC)c1)C(=O)Nc1nccs1)N(O)C=O,0.1 µM
2,O=C(Nc1cccc(CN2CCCN(Cc3ncc[nH]3)CC2)c1)c1cc2ccccc2s1,0.73 µM
3,O=C(Nc1ccc(S(=O)(=O)N2CCCCC2)cc1)c1cc(-c2ccccc2O)n[nH]1,0.85 µM
4,O=C(Nc1cccc(-c2nn3ncccc3c2-c2ccnc(Nc3ccc(N4CCOCC4)cc3)n2)c1)c1c(F)cccc1F,0.16 µM
5,Cn1cc(C2CCN(CCCCNC(=O)c3ccc(-c4ccc(C(F)(F)F)cc4)c(CO)c3)CC2)c2ccccc21,1 µM
6,CCOc1ccc2c(NN=Cc3ccccc3OC)cc(C)nc2c1,0.5 µM
7,Cc1cc(-c2cccc(CNCc3ccc(F)cc3)c2)ccc1S(=O)(=O)NCCN1CCCC1,0.73 µM
8,COc1ccc2nccc([C@@H](O)CN3CCC(NCc4cc5cc(C)ccc5s4)CC3)c2c1,0.64 µM
9,NCCCCNc1cc(-c2ccnc(Nc3cccc(Cl)c3)n2)ccn1,0.28 µM
10,Cc1cc(Cl)ccc1NC(=O)NCCCCCN1CCC(c2c[nH]c3ccccc23)CC1,1.01 µM
11,COc1ccc(C(=O)NC(c2ccc(Cl)cc2Cl)c2cc(Cl)c3cccnc3c2O)cc1 (configuration not stated),0.5 µM
12,COc1c(C2CCN(CCCCNC(=O)c3ccc(-c4ccc(C#N)cc4)c(O)c3)CC2)ccc2c1CCCC2,0.2 µM
13,CCCCCCC(C)c1cc(O)c2c(c1)OC(=O)CC2(CC)c1ccccn1 (configuration not stated),0.33 µM
14,O=C(NCCCCN1CCC(c2ccc3c(c2OCCOCCO)CCCC3)CC1)c1ccc(-c2ccc(C(F)(F)F)cc2)cc1,0.28 µM
15,O=c1c2sc(-c3ccc(Cl)cc3)cc2ncn1Cc1ccc(OCCN2CCCC2)c2ccccc12,0.25 µM
16,N#Cc1cccc(C(=O)NC2CCN(c3ccnc(Nc4ccc(F)cc4)n3)C2)c1 (configuration not stated),0.4 µM
17,COc1cc(F)c2ncc(Cl)c(CCN3CCC(NCc4ccc5c(n4)NC(=O)CO5)CC3)c2c1,0.5 µM
18,COc1ccc(C(=O)[C@H]2C[C@@H]2CN(C)CC(O)c2cc(C)c(OC)cc2C)cc1 (some centres not stated),0.97 µM
19,NC(CC1CC(=O)N1CC(=O)O)C(=O)O (configuration not stated),0.16 µM
20,CN1CCCc2ccc(NC(=O)Nc3ccc(Cl)c(Cl)c3)cc2C1,0.6 µM
21,Cc1ccc(NC(=O)c2cc(Br)cc(N3CCCN(C)CC3)c2)cc1F,1.34 µM
22,COc1ccc(Cl)cc1N1CCN(CCCNC(=O)c2ccc(-c3nc4cc(Cl)c(F)cc4[nH]3)c(F)c2)CC1,1.11 µM
23,CN(C)Cc1ccc(-c2cccc(Nc3nccc(NCC(O)c4ccccc4)n3)c2)cc1 (configuration not stated),0.37 µM
24,COc1ccc(C=CC(=O)Nc2ccc(N3CCCC3)cc2)cc1,1.28 µM
25,COc1cc(C)ccc1S(=O)(=O)N1CCCCC(c2ccc(C(F)(F)F)cc2)=N1,0.77 µM

row,Compound,IC50
1,O=C(Nc1cccc(-c2nn3ncccc3c2-c2ccnc(Nc3cccc(C(F)(F)F)c3)n2)c1)c1c(F)cccc1F,0.65 µM
2,COc1cccc2c(O)c(CNC3CCCCC3)ccc12,0.63 µM
3,CCOc1ccc2nc(C)cc(NN=Cc3ccccc3F)c2c1,0.74 µM
4,Cc1cc(NN=Cc2ccccc2)c2cc(F)ccc2n1,0.58 µM
5,CC(=O)Nc1ccc(OCCCCN(Cc2ccccc2C(F)(F)F)c2ccc(C#N)c(C(F)(F)F)c2)cc1,1.39 µM
6,Cc1ccc(CNc2ccc3ncc(-c4cccc(C(=O)NCCN(C)C)c4)n3n2)c(C)c1,0.59 µM
7,COc1ccc(CNC2CCN(C)CC2)cc1-c1ccc(S(=O)(=O)NCC2CCCO2)s1 (configuration not stated),0.8 µM
8,CN(C)Cc1cccc(CNC(=O)c2sccc2OCc2ccc(Cl)cc2)c1,0.83 µM
9,NC1=NC(c2ccccc2)(c2ccccc2)C(=O)N1CC1CCC1,0.75 µM
10,CCCCCCCN1CCC(CCNc2ccnc3ccc(OC)cc23)CC1,0.95 µM
11,Nc1nc(N)c2c(Oc3cccnc3)cccc2n1,0.89 µM
12,CCCc1cc(N2CCC(N3CCCC3)CC2)nc(Nc2ccc(OC)cc2)n1,0.81 µM
13,CS(=O)(=O)c1ccc(-n2nc(C(F)(F)F)cc2-c2ccc(/C=N/OCC(=O)O)o2)cc1,0.98 µM
14,O=C(Nc1ccc(OC2CCN(Cc3ccsc3)C2)c(Cl)c1)c1ccc2ncccc2c1 (configuration not stated),0.97 µM
15,O=C1Nc2cccc3c2C1(CCCCCN1CCC(c2c[nH]c4ccncc24)CC1)CCC3 (configuration not stated),0.99 µM
16,Nc1nc(N)c2c(ccc3[nH]c(-c4ccccc4Cl)nc32)n1,0.23 µM
17,CN(CCCCCN1CCC(NC(=O)Nc2ccc(C(F)(F)F)cc2)C1)C(=O)/C=C/c1ccc(Cl)c(Cl)c1 (configuration not stated),0.77 µM
18,CCOc1cc(Cc2cnc(N)nc2N)cc(OC)c1OC,0.91 µM
19,CCc1cn2c3c(cc(C(=O)N[C@@H](Cc4cccc(Cl)c4)[C@H](O)CNC4CCOCC4)cc13)N(C)S(=O)(=O)CC2,0.04 µM
20,NC1=NC2(CCCCC2)N(OCCCCCCc2ccccc2)C(N)=N1,0.35 µM
21,COc1ccc(C(C(=O)NC2CCN(C[C@H](O)c3ccnc4ccc(OC)cc34)CC2)N2CCN(c3ccc(Cl)c(Cl)c3)CC2)cc1 (some centres not stated),0.2 µM
22,Cc1ccc(NC(=O)NC2CCN(CCC(NC(=O)Cc3ccccc3)c3ccc(Cl)c(Cl)c3)CC2)cc1 (configuration not stated),0.62 µM
